Source: patent US5045566A, “Novel imidate insecticides” (ICI Americas Inc., priority 1989, dated 1991)

How the values were obtained:
Assay type in all cases: in vivo
[1] = test system: Maize weevil [Sitophilus zeamais (Motschulsky)]; assay: Maize weevil on dipped corn seeds (MW), 48 hours; conditions: percent in solution, adult weevils
Outline: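 LC50, given as percent of compound in dipping solution, comes from dosage-mortality curves over concentrations descending from 0.01%. Four corn seeds soaked 2-3 s in 50:50 acetone:water solution were dried and held with 10 adult weevils, about 25° C, mortality read after 48 h.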

[2] = test system: Housefly [Musca domestica]; assay: Housefly contact mortality in dishes (HF), 48 hours; conditions: μg of test compound per 25 female flies
Outline: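 Acetone solutions (with 0.01% peanut oil) dried onto dish bottoms, then 25 female flies, 1-2 days old, caged over the residue with sugar water. Mortality scored at 48 hours; LC50 from dosage-mortality curves, in μg per 25 female flies, top level 100 μg.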

[3] = test system: Tobacco Budworm [Heliothis virescens (Fabricius)] eggs; assay: Tobacco budworm eggs (TBW-E); conditions: percent in solution; 2-day old eggs
Outline: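 LC50 is given as percent compound in the dipping solution, fitted from dosage-mortality curves. Two-day-old eggs on paper towel were dipped in acetone solutions (top concentration 0.1%), kept at 78° F on rearing medium, and scored after control hatch and larval feeding.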

[4] = test system: Cabbage Looper [Trichoplusia ni (Hubner)]; assay: Cabbage looper leaf dip (CL), 3-5 days; conditions: percent in solution, second-instar larvae
Outline: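 LC50, as percent test compound in solution, derived from dosage-mortality curves; concentrations started at 0.1% and went lower. Five second-instar larvae per dish fed on acetone-water-dipped, dried squash cotyledons in a humid chamber. Deaths recorded 3-5 days post-infestation.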

[5] = test system: Black Bean Aphid [Aphis fabae (Scop.)]; assay: Black bean aphid spray test on nasturtium (BBA), 48 hours; conditions: percent of test compound in sprayed solution
Outline: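 LC50, given as percent test compound in the sprayed liquid, was calculated from dosage-mortality curves using concentrations from 0.05% downward. Sprays in 50:50 acetone-water went to runoff on ~5 cm nasturtiums carrying 25-50 aphids of mixed ages, one day after infestation. Deaths were counted 48 h later under greenhouse conditions.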

SMILES	LC50 MW [1] [%]	LC50 HF [2] [µg]	LC50 TBW E (eggs) [3] [%]	LC50 CL [4] [%]	LC50 BBA [5] [%]
CC(C)C(=Nc1cccc(Br)c1)OCc1ccc(F)c(Oc2ccc(Cl)cc2)c1 [Compound 386]	> 0.01	< 100	> 0.1	0.0012	0.002
CC(C)C(=Nc1ccc(Cl)c(C(F)(F)F)c1)OCc1ccc(F)c(Oc2ccccc2)c1 [Compound 388]	> 0.01	< 100	> 0.1	0.0012	0.0006
CC(C)C(=Nc1cccc(I)c1)OCc1cccc(Oc2ccc(Cl)cc2)c1 [Compound 389]	> 0.01	< 100	> 0.1	0.00069	0.003
CC(C)C(=Nc1cccc(Cl)c1)OCc1ccc(F)c(Oc2ccc(Cl)cc2)c1 [Compound 390]	> 0.01	< 100	0.045	0.0021	0.0006
CC(C)C(=Nc1ccc(C#N)cc1)OCc1ccc(F)c(Oc2ccc(Cl)cc2)c1 [Compound 392]	> 0.01	< 100	0.039	0.00034	0.001
CC(C)C(=Nc1ccc(C#N)cc1)OCc1cccc(Oc2ccc(Cl)cc2)c1 [Compound 393]	> 0.01	< 100	> 0.1	0.00037	> 0.05
CC(C)C(=Nc1ccc(C#N)cc1)OCc1ccc(F)c(Oc2ccc(F)cc2)c1 [Compound 394]	> 0.01	< 100	0.05	0.00025	0.002
CC(C)C(=Nc1ccc(F)c(Cl)c1F)OCc1ccc(F)c(Oc2ccc(Cl)cc2)c1 [Compound 395]	0.004	8.6	0.018	< 0.1	0.0001
Cc1cc(N=C(OCc2ccc(F)c(Oc3ccc(F)cc3)c2)C(C)C)ccc1F [Compound 396]	> 0.01	< 100	< 0.1	0.0017	0.0002
Cc1cc(N=C(OCc2cccc(Oc3ccc(Cl)cc3)c2)C(C)C)ccc1F [Compound 397]	> 0.01	< 100	< 0.1	0.0019	0.002
CC(C)C(=Nc1ccc(F)c(Br)c1)OCc1cccc(Oc2ccc(Cl)cc2)c1 [Compound 398]	> 0.01	< 100	< 0.1	< 0.1	0.002
Cc1cc(N=C(OCc2ccc(F)c(Oc3ccc(Cl)cc3)c2)C(C)C)ccc1F [Compound 399]	> 0.01	< 100	0.025	0.0012	0.0003
Cc1cc(N=C(OCc2ccc(F)c(Oc3ccccc3)c2)C(C)C)ccc1F [Compound 400]	> 0.01	< 100	0.025	0.0007	0.0003
Cc1cccc(N=C(OCc2ccc(F)c(Oc3ccc(Cl)cc3)c2)C(C)C)c1 [Compound 401]	> 0.01	< 100	0.04	0.0017	0.0006
Cc1ccc(N=C(OCc2cccc(Oc3ccc(F)cc3)c2)C(C)C)cc1Cl [Compound 402]	> 0.01	< 100	> 0.1	> 0.1	0.0006
Cc1ccc(N=C(OCc2cccc(Oc3ccc(Cl)cc3)c2)C(C)C)cc1Cl [Compound 403]	> 0.01	< 100	> 0.1	> 0.1	0.001
Cc1ccc(N=C(OCc2ccc(F)c(Oc3ccc(Cl)cc3)c2)C(C)C)cc1Cl [Compound 404]	> 0.01	< 100	0.025	> 0.1	0.002
Cc1cccc(N=C(OCc2cccc(Oc3ccc(F)cc3)c2)C(C)C)c1 [Compound 405]	> 0.01	< 100	> 0.1	> 0.1	0.0025
Cc1ccc(N=C(OCc2ccc(F)c(Oc3ccc(Cl)cc3)c2)C(C)C)cc1C [Compound 406]	> 0.01	< 100	< 0.1	> 0.1	0.001
Cc1cc(N=C(OCc2ccc(F)c(Oc3ccc(Cl)cc3)c2)C(C)C)ccc1Br [Compound 407]	> 0.01	> 100	0.05	> 0.1	0.0007
COc1ccc(N=C(OCc2ccc(F)c(Oc3ccc(F)cc3)c2)C(C)C)cc1Cl [Compound 408]	> 0.01	< 100	0.02	0.0015	0.0005
COc1ccc(N=C(OCc2ccc(F)c(Oc3ccccc3)c2)C(C)C)cc1Cl [Compound 409]	> 0.01	< 100	0.025	0.0017	0.0005
COc1ccc(N=C(OCc2ccc(F)c(Oc3ccc(Cl)cc3)c2)C(C)C)cc1Cl [Compound 410]	> 0.01	< 100	> 0.1	> 0.1	0.0025
CCc1ccccc1N=C(OCc1cccc(Oc2ccc(F)cc2)c1)C(C)C [Compound 411]	> 0.01	< 100	> 0.1	> 0.1	> 0.05
COc1ccc(N=C(OCc2ccc(F)c(Oc3ccc(Cl)cc3)c2)C(C)C)cc1 [Compound 412]	> 0.01	< 100	> 0.1	> 0.1	0.0032
CC(C)C(=Nc1ccc(F)c(I)c1)OCc1cccc(Oc2ccc(Cl)cc2)c1 [Compound 413]	> 0.01	< 100	0.04	0.0007	> 0.05
CC(C)C(=Nc1ccc(S(C)(=O)=O)cc1)OCc1ccc(F)c(Oc2ccc(F)cc2)c1 [Compound 414]	> 0.01	< 100	> 0.1	0.0024	> 0.05
